Key:
Homo sapiens [1] = organism: Homo sapiens; assay: Selectivity index, ratio of IC50 for human HDAC1 to IC50 for human HDAC6
[2] = biological target: T1, Polyamine deacetylase HDAC10 (Homo sapiens, UniProt Q969S8); assay: Inhibition of human HDAC10 after 15 mins by trypsin-coupled fluorescence assay
T1 sequence (Q969S8 whole entry): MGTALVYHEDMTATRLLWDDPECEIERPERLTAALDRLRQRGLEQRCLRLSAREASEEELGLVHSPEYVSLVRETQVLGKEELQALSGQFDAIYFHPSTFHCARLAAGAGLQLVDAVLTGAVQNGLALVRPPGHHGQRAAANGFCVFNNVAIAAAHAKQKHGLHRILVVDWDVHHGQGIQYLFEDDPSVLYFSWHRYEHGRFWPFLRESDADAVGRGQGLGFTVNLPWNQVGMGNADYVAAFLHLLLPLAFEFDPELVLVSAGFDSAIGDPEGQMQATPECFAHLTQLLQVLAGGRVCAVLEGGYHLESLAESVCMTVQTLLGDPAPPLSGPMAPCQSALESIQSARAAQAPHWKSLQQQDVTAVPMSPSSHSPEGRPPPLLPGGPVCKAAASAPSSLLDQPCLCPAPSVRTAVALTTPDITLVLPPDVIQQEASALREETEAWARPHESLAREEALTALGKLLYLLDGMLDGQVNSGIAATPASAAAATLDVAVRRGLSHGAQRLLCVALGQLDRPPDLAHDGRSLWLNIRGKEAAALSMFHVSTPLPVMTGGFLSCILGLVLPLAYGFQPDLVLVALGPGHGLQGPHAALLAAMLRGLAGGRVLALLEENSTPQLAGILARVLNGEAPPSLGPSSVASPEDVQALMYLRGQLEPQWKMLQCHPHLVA

Homo sapiens [3] = organism: Homo sapiens; assay: Selectivity index, ratio of IC50 for human HDAC4 to IC50 for human HDAC6
Histone deacetylase 4 = Histone deacetylase 4 (Homo sapiens, UniProt P56524); assay: Inhibition of human HDAC4 after 15 mins by trypsin-coupled fluorescence assay
[4] = biological target: T2, Protein deacetylase HDAC6 (Homo sapiens, UniProt Q9UBN7); assay: Inhibition of human HDAC6 after 15 mins by trypsin-coupled fluorescence assay
T2 sequence (Q9UBN7 whole entry): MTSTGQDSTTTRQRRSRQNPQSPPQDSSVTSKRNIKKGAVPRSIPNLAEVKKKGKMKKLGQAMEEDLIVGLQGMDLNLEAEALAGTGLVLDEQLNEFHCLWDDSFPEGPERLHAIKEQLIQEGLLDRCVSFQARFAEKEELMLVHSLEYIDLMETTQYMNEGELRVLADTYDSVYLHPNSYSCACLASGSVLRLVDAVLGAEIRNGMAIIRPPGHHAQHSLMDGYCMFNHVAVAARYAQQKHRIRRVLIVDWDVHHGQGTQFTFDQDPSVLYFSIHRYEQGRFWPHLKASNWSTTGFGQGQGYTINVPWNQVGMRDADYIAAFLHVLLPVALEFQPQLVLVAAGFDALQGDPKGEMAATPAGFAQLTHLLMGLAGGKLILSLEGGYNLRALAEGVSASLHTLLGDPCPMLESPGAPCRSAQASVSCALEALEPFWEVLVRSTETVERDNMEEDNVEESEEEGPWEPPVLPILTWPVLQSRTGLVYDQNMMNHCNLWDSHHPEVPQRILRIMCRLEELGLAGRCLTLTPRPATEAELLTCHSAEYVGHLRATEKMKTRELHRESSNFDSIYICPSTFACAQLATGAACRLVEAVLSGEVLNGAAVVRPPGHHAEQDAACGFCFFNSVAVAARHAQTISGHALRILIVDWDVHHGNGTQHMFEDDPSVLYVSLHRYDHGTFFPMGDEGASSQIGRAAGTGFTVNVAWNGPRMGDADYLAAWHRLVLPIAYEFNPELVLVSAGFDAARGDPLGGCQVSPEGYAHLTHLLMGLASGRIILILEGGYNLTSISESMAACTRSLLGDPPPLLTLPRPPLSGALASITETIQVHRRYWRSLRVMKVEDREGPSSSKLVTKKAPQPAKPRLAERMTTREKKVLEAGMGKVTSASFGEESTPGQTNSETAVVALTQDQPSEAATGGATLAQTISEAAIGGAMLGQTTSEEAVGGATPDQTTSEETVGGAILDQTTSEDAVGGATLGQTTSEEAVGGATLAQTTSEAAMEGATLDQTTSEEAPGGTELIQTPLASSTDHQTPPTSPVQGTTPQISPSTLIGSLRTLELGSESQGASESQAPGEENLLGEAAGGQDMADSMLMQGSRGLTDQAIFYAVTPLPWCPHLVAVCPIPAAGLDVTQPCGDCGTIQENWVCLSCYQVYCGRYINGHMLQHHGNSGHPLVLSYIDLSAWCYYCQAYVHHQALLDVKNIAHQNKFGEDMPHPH

Histone deacetylase 2 = Histone deacetylase 2 (Homo sapiens, UniProt Q92769); assay: Inhibition of human HDAC2 after 15 mins by trypsin-coupled fluorescence assay
Homo sapiens [5] = organism: Homo sapiens; assay: Selectivity index, ratio of IC50 for human HDAC2 to IC50 for human HDAC6
Histone deacetylase 5 = Histone deacetylase 5 (Homo sapiens, UniProt Q9UQL6); assay: Inhibition of human HDAC5 after 15 mins by trypsin-coupled fluorescence assay
Chain of Histone deacetylase 5 (Q9UQL6 whole entry): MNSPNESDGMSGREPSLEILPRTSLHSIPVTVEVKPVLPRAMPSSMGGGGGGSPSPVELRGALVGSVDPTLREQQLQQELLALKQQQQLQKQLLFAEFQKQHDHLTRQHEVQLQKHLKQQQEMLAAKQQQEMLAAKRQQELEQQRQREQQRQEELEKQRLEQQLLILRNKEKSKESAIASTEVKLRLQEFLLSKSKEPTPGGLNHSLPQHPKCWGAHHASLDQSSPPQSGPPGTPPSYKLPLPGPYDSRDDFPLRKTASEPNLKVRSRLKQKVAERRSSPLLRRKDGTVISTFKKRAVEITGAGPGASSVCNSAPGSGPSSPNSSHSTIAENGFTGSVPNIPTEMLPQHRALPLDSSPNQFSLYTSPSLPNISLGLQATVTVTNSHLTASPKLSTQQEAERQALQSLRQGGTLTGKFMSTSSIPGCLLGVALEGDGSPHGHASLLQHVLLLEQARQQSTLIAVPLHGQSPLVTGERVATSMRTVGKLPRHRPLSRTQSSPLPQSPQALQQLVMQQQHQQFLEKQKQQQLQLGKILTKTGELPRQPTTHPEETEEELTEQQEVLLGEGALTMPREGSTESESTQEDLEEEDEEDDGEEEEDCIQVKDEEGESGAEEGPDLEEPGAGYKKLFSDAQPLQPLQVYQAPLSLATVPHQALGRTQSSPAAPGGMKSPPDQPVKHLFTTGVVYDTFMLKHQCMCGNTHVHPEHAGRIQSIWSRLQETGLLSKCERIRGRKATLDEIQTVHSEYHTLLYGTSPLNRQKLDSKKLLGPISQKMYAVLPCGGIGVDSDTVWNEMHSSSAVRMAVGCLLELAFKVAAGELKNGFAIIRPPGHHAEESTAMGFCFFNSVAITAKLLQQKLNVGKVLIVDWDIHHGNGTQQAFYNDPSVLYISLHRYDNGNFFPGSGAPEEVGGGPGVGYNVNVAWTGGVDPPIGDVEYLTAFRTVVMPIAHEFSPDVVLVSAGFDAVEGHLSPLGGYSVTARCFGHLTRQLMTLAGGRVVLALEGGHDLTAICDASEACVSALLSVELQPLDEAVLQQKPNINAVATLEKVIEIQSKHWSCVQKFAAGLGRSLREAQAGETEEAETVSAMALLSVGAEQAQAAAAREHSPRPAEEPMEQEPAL

Chain of Histone deacetylase 2 (Q92769 whole entry): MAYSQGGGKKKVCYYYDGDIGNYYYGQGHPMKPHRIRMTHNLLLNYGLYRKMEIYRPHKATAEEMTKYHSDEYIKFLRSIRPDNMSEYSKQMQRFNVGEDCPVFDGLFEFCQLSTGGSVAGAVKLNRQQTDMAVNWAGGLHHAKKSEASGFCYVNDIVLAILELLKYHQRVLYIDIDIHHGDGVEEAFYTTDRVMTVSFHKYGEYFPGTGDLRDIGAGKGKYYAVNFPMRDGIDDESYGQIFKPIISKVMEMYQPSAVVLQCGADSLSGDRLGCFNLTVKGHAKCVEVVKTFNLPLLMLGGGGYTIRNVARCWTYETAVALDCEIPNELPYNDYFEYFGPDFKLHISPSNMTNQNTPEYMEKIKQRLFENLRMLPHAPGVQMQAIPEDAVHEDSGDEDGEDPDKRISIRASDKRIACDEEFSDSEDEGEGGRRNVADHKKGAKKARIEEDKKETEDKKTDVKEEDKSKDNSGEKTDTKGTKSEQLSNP
Chain of Histone deacetylase 4 (P56524 whole entry): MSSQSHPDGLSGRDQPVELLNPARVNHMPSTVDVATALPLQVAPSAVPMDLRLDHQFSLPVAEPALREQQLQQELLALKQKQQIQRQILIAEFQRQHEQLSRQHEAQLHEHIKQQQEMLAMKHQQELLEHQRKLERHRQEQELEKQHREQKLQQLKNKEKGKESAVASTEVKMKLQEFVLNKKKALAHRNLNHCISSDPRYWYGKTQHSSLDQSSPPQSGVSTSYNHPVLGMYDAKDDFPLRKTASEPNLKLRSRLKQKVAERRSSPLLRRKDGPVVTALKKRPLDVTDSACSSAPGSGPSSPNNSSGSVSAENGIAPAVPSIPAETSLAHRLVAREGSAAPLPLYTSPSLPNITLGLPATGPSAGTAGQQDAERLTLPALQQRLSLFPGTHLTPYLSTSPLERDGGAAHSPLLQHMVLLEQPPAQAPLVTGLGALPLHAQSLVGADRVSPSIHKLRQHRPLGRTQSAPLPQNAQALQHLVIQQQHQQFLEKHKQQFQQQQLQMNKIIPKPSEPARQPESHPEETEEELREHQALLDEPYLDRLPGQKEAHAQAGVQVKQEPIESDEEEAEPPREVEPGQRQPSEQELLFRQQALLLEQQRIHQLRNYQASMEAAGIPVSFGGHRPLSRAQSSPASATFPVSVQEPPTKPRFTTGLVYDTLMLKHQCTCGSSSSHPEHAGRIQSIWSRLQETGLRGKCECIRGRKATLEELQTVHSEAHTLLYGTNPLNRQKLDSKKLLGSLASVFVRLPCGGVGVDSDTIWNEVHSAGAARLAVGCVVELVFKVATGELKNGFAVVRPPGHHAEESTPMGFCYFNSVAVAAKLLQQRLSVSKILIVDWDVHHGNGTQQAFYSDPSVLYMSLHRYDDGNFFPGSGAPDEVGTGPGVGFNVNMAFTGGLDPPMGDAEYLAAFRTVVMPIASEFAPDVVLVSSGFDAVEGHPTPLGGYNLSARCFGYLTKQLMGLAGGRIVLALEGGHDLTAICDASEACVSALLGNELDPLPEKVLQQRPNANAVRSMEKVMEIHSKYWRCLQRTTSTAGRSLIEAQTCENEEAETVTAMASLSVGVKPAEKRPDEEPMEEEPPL

- Ratio IC50 (Homo sapiens [1]): 15 to 400
- IC50 [2]: 700 nM
- Ratio IC50 (Homo sapiens [3]): 15 to 400
- IC50 (Histone deacetylase 4): 2200 nM
- IC50 [4]: 25 nM
- IC50 (Histone deacetylase 2): 2200 nM
- Ratio IC50 (Homo sapiens [5]): 15 to 400
- IC50 (Histone deacetylase 5): 9500 nM
SMILES: O=C(NO)c1ccc(CN(CCO)C(=O)Cc2ccccc2)cc1
